Reference: ChEMBL document CHEMBL1154973 (Bioorg Med Chem Lett, 2010)

What was measured:
[1] = target: T1, Acetylcholinesterase (Rattus norvegicus, UniProt P37136); assay: Inhibition of rat brain AChE by Ellman's method
T1 sequence (P37136 whole entry): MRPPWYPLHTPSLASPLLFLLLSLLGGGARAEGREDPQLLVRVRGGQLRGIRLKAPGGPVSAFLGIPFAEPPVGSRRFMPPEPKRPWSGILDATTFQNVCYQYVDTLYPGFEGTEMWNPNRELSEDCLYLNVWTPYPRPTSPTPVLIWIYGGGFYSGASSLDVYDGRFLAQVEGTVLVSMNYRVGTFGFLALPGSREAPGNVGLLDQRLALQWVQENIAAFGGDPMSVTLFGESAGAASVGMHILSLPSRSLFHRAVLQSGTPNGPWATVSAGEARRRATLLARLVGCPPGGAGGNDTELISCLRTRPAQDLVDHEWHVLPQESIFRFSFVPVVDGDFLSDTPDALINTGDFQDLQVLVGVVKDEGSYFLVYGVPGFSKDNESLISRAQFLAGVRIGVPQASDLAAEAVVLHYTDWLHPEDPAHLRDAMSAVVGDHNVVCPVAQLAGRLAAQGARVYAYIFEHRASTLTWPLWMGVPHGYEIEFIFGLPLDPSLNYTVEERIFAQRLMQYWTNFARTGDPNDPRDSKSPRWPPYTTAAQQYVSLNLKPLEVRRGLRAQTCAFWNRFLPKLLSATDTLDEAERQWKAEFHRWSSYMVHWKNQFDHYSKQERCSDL

[2] = target: Butyrylcholinesterase (Rattus norvegicus, UniProt Q9JKC1); assay: Inhibition of rat plasma BChE by Ellman's method; format: cell-free
Chain of Butyrylcholinesterase (Q9JKC1 whole entry): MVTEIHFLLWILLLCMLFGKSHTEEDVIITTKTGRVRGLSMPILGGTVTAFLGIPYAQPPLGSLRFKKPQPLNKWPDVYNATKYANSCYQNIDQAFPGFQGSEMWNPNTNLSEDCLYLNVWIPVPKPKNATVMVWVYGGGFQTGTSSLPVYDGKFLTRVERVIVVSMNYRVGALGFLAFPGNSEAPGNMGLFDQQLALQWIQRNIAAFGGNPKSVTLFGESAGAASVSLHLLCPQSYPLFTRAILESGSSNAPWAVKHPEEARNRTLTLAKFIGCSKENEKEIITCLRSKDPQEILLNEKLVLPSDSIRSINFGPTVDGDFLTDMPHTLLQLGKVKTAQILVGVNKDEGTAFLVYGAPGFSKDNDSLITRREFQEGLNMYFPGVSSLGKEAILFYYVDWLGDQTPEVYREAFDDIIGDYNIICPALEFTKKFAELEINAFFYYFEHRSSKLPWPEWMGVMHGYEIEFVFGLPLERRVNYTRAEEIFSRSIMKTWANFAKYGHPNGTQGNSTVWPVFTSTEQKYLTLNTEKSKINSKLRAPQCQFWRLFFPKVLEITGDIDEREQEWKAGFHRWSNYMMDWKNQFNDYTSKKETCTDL

[3] = target: T2, Acetylcholinesterase and butyrylcholinesterase (AChE and BChE) (Rattus norvegicus) (UniProt P37136+Q9JKC1); assay: Selectivity ratio of IC50 for rat plasma BChE to IC50 for rat brain AChE; format: cell-free
T2 sequence (Q9JKC1 1-597, one chain of several): as the sequence (Q9JKC1 whole entry) above

[4] = target: T2, Acetylcholinesterase and butyrylcholinesterase (AChE and BChE) (Rattus norvegicus); assay: Selectivity ratio of IC50 for rat brain AChE to IC50 rat plasma BChE; format: cell-free

For `CN1CC[C@@]2(C)c3cc(OC(=O)Nc4cccc(Cl)c4)ccc3N(C)[C@@H]12`, the IC50 [1] was 38.7 nM, the IC50 [2] was 105 nM and the Ratio IC50 [3] was 3.
For `CN1CC[C@@]2(C)c3cc(OC(=O)Nc4cccc(Cl)c4Cl)ccc3N(C)[C@@H]12`, the IC50 [1] was 66.2 nM, the IC50 [2] was 517 nM and the Ratio IC50 [3] was 8.
With `CN1CC[C@@]2(C)c3cc(OC(=O)Nc4ccccc4Br)ccc3N(C)[C@@H]12` the IC50 [1] was 66.5 nM and the IC50 [2] was 39.6 nM.
`Cc1c(Cl)cccc1NC(=O)Oc1ccc2c(c1)[C@]1(C)CCN(C)[C@@H]1N2C` was tested, and the IC50 [1] was 6.4 nM, the IC50 [2] was 113 nM and the Ratio IC50 [3] was 18.
`CN1CC[C@@]2(C)c3cc(OC(=O)Nc4cccc(C#N)c4)ccc3N(C)[C@@H]12` gave an IC50 [1] of 442 nM, an IC50 [2] of 1020 nM and a Ratio IC50 [3] of 4.
With `CN1CC[C@@]2(C)c3cc(OC(=O)Nc4ccccc4Cl)ccc3N(C)[C@@H]12` the IC50 [1] was 264 nM, the Ratio IC50 [4] was 3 and the IC50 [2] was 88.7 nM.
In the case of `CN1CC[C@@]2(C)c3cc(OC(=O)Nc4ccc(Br)cc4)ccc3N(C)[C@@H]12`, the IC50 [1] is reported as 168 nM, the Ratio IC50 [4] is reported as 7 and the IC50 [2] is reported as 14.9 nM.
With `CN1CC[C@@]2(C)c3cc(OC(=O)Nc4ccc(Cl)cc4)ccc3N(C)[C@@H]12` the IC50 [1] was 914 nM, the Ratio IC50 [4] was 15 and the IC50 [2] was 61.3 nM.
`Cc1ccc(NC(=O)Oc2ccc3c(c2)[C@]2(C)CCN(C)[C@@H]2N3C)cc1Cl` showed an IC50 [1] of 7.3 nM and an IC50 [2] of 8.5 nM.
In the case of `CN1CC[C@@]2(C)c3cc(OC(=O)Nc4ccccc4)ccc3N(C)[C@@H]12` [PHENSERINE], the IC50 [1] is reported as 11.9 nM, the IC50 [2] is reported as 104 nM and the Ratio IC50 [3] is reported as 10.
For `CC(C)c1cccc(C(C)C)c1NC(=O)Oc1ccc2c(c1)[C@]1(C)CCN(C)[C@@H]1N2C`, the IC50 [1] was 735 nM and the IC50 [2] was 830 nM.
With `CNC(=O)Oc1ccc2c(c1)[C@]1(C)CCN(C)[C@@H]1N2C` [PHYSOSTIGMINE] the IC50 [2] was 7.6 nM.
Compound `COc1ccc(NC(=O)Oc2ccc3c(c2)[C@]2(C)CCN(C)[C@@H]2N3C)cc1` has an IC50 [1] of 29.9 nM, a Ratio IC50 [4] of 5 and an IC50 [2] of 5.8 nM.
For `CN1CC[C@@]2(C)c3cc(OC(=O)Nc4cccc5ccccc45)ccc3N(C)[C@@H]12`, the IC50 [1] was 4.2 nM, the IC50 [2] was 14.1 nM and the Ratio IC50 [3] was 3.
Compound `CN1CC[C@@]2(C)c3cc(OC(=O)Nc4cc(Cl)cc(Cl)c4)ccc3N(C)[C@@H]12` has an IC50 [1] of 113 nM, an IC50 [2] of 935 nM and a Ratio IC50 [3] of 8.
In the case of `CN1CC[C@@]2(C)c3cc(OC(=O)NC4CCCCC4)ccc3N(C)[C@@H]12`, the IC50 [1] is reported as 8.5 nM, the IC50 [2] is reported as 1400 nM and the Ratio IC50 [3] is reported as 174.
